Laboratory results: PMC12794188, “Maternal–Fetal Transfer and Toxicokinetics of 2,2′,5,5′-Tetrachlorobiphenyl, [^14C]-PCB52, Following Intratracheal Administration” (Chemical Research in Toxicology, 2025)
Where “and” joins values, the source holds several entries; their conditions need not be identical. Equal values may be shown once. Read-outs that look alike come from different tables or passages of the source.

Legend:
[1] = Metabolite extraction and analysis: parent PCB52 and metabolite fractions in tissues and urine after intratracheal [14C]-PCB52; type: in vivo, Sprague–Dawley rats; conditions: for PCB52 share of radioactivity over time / unmetabolized PCB52 share of radioactivity over time: over the 96 h period; for parent PCB52 share of radioactivity: maternal serum
Excerpt: A complex mixture of confirmed and putative metabolites of PCBs has been reported in the literature. To quantify the metabolites of PCB52 in maternal serum, the developing fetus, liver, brain, lung, and adipose tissue in this study, we employed a series of liquid–liquid extractions with solvents of increasing polarity to separate phenolic, methyl sulfones, and glucuronate/sulfated metabolites. , Recovery experiments used available standards including parent PCB52, 4-OH-PCB52, 3-MeSO2-PCB52, and 4-MeSO2-PCB52 metabolites in biological samples. The levels of the parent compound PCB52 and its extractable metabolites in the samples were determined using a validated liquid scintillation counting method coupled with gas chromatography-electron capture detection (GC-ECD), following our previous protocol. , Individual extractable metabolite was separated using a series of liquid–liquid extractions, employing a graded array of solvents with incrementing polarity to facilitate the partitioning of the analytes according to their inherent lipophilic characteristics (Figure S4). Subsequently, individual fractions were classified into respective categories, including the parent PCB moiety, hydroxylated PCBs (OH-PCBs), methyl sulfonyl PCBs (MeSO2–PCBs), conjugated metabolites, and unextractable components.
Tissue samples (200–400 mg wet weight) were prepared for analysis through a two-step homogenization using 2 mL of hexane/acetone solvent (50% vol/vol). The resultant solution was centrifuged, and then the pellet underwent two successive extractions with 1.5 mL of dichloromethane (DCM), chloroform/methanol (50:50 vol/vol), methanol/water (50:50 vol/vol), and water, respectively. The supernatant from the DCM extraction contained hydroxylated metabolites, whereas the top fractions from the methanol/water extraction had conjugated PCB metabolites. The resultant supernatant from the hexane/acetone extraction was rinsed with Milli-Q water, then extracted with a 0.5 M potassium hydroxide (KOH) solution in 50% ethanol, and triple rinsed with 400 μL of hexane. The hydrophobic fraction was further purified by rinsing with 1 M hydrochloric acid (400 μL). Simultaneously, a plausible MeSO2–PCBs fraction was extracted with 500 μL of anhydrous DMSO, followed by triple hexane rinses (3 × 400 μL). The residual hydrophobic phase was quantified as native PCB52. The quantification of cold PCB52, OH-PCBs (as MeO-PCB derivatives), and MeSO2-PCBs standards in spiked samples was initially performed on a gas chromatograph (Agilent 6890N) equipped with a 63Ni μ-ECD detector and SLB-5MS capillary column (60 m × 0.25 mm I.D., 0.25 μm film thickness; Supelco, St Louis, MO). Subsequently, individual separated fractionation from [^14C]-PCB52-exposed tissue samples was transferred to a prepared scintillation vial, followed by the addition of 10 mL of cocktail solution and analysis by scintillation counter. Any quantifiable radioactivity in the residual pellet was treated as unextractable compounds.

[2] = Literature half-life of PCB52 following intravenous administration in male rats (Pu et al.); conditions: rat, in vivo, concentration–time data of Pu et al., read-out: half-life when Pu et al. data are fitted to a two-compartmental PK model
[3] = set-up: method as in Pu et al.; conditions: ref Pu et al., cited from earlier work
[4] = Pulmonary uptake, exhalation and excretion (mass balance) after intratracheal [14C]-PCB52; type: in vivo, Sprague–Dawley rats
Description: Female Sprague–Dawley rats (8 weeks old) weighing 237–269.7 g (mean = 247.5 g) (Envigo RMS, LLC, Indianapolis, IN) were used for this study. All animal experiments were performed following the protocols evaluated and approved by the University of Iowa Institutional Animal Care and Use Committee (approval number 3091097). After arrival, the animals were acclimated for 7 days. The animals were housed in a light and temperature-controlled environment with ad libitum access to food and water during quarantine and throughout the study. Timed pregnancy was achieved by harem mating. , Briefly, one male and two female rats were placed together in the evening and checked for vaginal plug the following day. If vaginal plug was present, the male was removed from the breeding cage, and the gestation day 0 (GD 0), 0-day post coitum was assigned. Pregnancies were confirmed by ultrasound scan at GD 9. The dams were exposed at GD 11 (±1 day) to capture the period of early organogenesis and hormonal function, which falls within week 3 of human embryonic development. ,− On the day of the experiment, pregnant rats were intratracheally administered an average of 40 μg (range, 35–45 μg) of [^14C]-PCB52 in 100 μL of exposure solution. Although the dose used in this study exceeded the tolerable daily intake (TDI) of PCBs for healthy individuals, which is 1.6 μg per day for an individual weighing 80 kg, the use of higher acute doses has been established in toxicological studies intended for risk assessment. The intratracheal instillation method was chosen for administering [^14C]-PCB52 to represent inhalation exposures, capture exhaled concentration, and efficiently utilize the limited availability of the cost-intensive radiolabeled PCB52. , Although inhalation exposure would better represent real-world exposures to airborne LC-PCBs, it would not allow us to accurately measure the amount of PCB52 exhaled into the air after exposure and is experimentally infeasible. […] All intratracheal instillations were done under light anesthesia, achieved using a 4% isoflurane concentration via a Fortec vaporizer (Cyprane, Keighley, UK). The animals recovered from anesthesia within 1 min. Subsequently, the animals were housed within a cylindrical glass chamber measuring 2 L in volume, equipped with glass drainage mechanisms to facilitate urine collection and a metallic screen to segregate urine from feces (as in Figure S1). Air was drawn from the chamber at 6.0 L/min through a cartridge containing the XAD-2 polymeric resin to capture any exhaled [^14C]-PCB52. For periods longer than 24 h postexposure, exposed dams were placed in a metabolic cage, which was fitted with a cartridge containing XAD-2 to capture exhaled [^14C]-PCB52 as in other end points.
Maternal blood, urine, and feces samples were collected immediately before and at 0.21, 1.67, 12, 24, 48, and 96 h after lung dosing. The exposed dams were euthanized using 4% isoflurane, followed by cervical dislocation and exsanguination via a cardiac puncture. Euthanasia was consistently performed during the light cycle. Dams’ fur was wiped and analyzed for radioactivity. Using the retro-orbital blood collection method, 0.5–1.5 mL ([…] of an exposed pregnant rat’s body weight) of blood sample was collected from each of the dams until the individual dams were necropsied for whole-body tissue harvesting. At the end of the exposure period, the chamber’s interior walls were rinsed separately with water and acetone/hexane (25 – 45 mL) and wiped to measure residues. From the collected whole blood samples, 100 μL were aliquoted into three vials each, and the remaining blood was allowed to clot at room temperature before being centrifuged to yield serum. The placentas, developing fetuses, and whole-body tissue samples were harvested immediately before exposure and at 0.21, 1.67, 12, 24, and 96 h postexposure. […]

SMILES: Clc1ccc(Cl)c(-c2cc(Cl)ccc2Cl)c1 [PCB52, 2,2′,5,5′-Tetrachlorobiphenyl]
- PCB52 share of radioactivity over time ([1]; adipose tissue): 66.0 to 96.8%
- unmetabolized PCB52 share of radioactivity over time ([1]; brain): 74.4 to 60.2%
- PCB52 share of radioactivity over time ([1]; fetal tissues): 54.1 to 27.7%
- unmetabolized PCB52 share of radioactivity over time ([1]; liver): 64.0 to 37.3%
- parent PCB52 share of radioactivity ([1]; 0.21 h): 69.4%
- parent PCB52 share of radioactivity ([1]; 96 h): 6.8%
- PCB52 share of radioactivity over time ([1]; placenta): 67.8 to 28.6%
- parent compound in urine ([1]; urine): no detectable parent compound
- half-life [2]: 2160 to 2880 min
- half-life ([3]; intravenous administration in male rats): ~10 days
- half-life estimate ([3]; intravenous, male rats, measured only up to 72 h postdosing): 10 days
- dose retained ([4]; after 96 h): 41.1%
- elimination through feces ([4]; at 96 h postexposure): 42.5%
- elimination through urine ([4]; at 96 h postexposure): 14.5%
- total elimination ([4]; at 96 h postexposure): 58.9%
- exhaled proportion of the administered dose ([4]; by 96 h postexposure): 1.33 ± 0.51%
- average lung uptake (administered dose distributed to the systemic circulation) ([4]; intratracheal administration): 99.4 ± 0.5% and 99.40 ± 0.51%
